Earlier results, collected in patent publication US8197866B1, “Herbal treatment for diabetes mellitus, type II” (priority 2009, dated 2012).

Experiments:
[1] = tested on: TPA-mediated tumor promotion
[2] = tested on: streptozocin-induced diabetes

SMILES	effect on TPA-mediated tumor promotion [1]	anti-diabetic activity [2]
O=c1cc(-c2ccc(O)cc2)oc2cc(O)cc(O)c12 [apigenin]	inhibitory effect	
C[C@@H]1O[C@@H](OC[C@H]2O[C@@H](Oc3cc(O)cc4oc(-c5ccc(O)c(O)c5)cc(=O)c34)[C@H](O)[C@@H](O)[C@@H]2O)[C@H](O)[C@H](O)[C@H]1O [luteolin 5-rutinoside]		marked anti-diabetic activity
